# Key:
# PDE4A5 = biological target: T1, PDE4A5 (Rattus norvegicus, UniProt P54748); experiment: 5FOA growth assay in fission yeast strain expressing PDE4A5; type: cell-based; conditions: for Composite Z score, PDE4A5: high throughput 5FOA growth screen
# T1 construct: targets used in the assays are full-length proteins (as opposed to simply the catalytic domain); expressed in transfected cells; host or cells: Schizosaccharomyces pombe, PDE gene integrated in place of cgs2
# T1 sequence (P54748 1-844): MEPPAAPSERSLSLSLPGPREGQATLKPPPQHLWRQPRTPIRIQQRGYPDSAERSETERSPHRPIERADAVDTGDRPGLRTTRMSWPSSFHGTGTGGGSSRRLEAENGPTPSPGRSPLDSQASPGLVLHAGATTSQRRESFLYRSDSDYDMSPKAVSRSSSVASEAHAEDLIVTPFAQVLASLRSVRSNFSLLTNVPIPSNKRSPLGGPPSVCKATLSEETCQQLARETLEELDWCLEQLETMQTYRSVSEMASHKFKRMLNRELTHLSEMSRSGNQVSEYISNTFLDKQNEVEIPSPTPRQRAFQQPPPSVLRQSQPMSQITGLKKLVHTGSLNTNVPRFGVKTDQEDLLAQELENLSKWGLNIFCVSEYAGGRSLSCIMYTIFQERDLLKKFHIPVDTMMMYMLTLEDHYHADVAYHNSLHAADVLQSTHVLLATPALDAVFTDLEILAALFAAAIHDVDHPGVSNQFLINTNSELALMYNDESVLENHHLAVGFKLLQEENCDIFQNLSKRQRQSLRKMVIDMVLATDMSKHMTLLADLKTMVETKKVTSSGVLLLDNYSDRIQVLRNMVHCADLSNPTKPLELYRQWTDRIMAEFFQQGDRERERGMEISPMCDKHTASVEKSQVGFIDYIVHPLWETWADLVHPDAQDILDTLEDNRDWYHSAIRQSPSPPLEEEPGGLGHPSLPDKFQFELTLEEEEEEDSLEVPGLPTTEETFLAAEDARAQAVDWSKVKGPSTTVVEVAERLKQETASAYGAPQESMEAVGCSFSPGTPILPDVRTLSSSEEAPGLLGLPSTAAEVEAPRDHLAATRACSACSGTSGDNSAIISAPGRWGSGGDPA
# Method in brief: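 Fission yeast pregrown in EMM with 0 to 2.5 mM cAMP to repress the fbp1-ura4 reporter, then grown in 5FOA medium with 100 nl of compound pinned from generally 10 mM stocks, 48 h at 30 °C. Growth read as OD600; composite Z scores derived; 5 mM cAMP as positive control.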
# [1] = system: PDE4A, PDE4B, PDE4D, PDE7A, PDE7B, PDE8A, PDE3A; experiment: Summary of PDE inhibitor profile; design: key to inhibitor class, Table 15: (1): Strong PDE4A5 inhibitor; (2): Strong PDE4A, 4B inhibitor; Moderate PDE4D inhibitor; (3): Strong PDE4A. 4B inhibitor; (4): Strong PDE4A, 4B, PDE7A inhibitor: Weak PDE4D inhibitor
# PDE4D3 = biological target: T2, PDE4D3 (Homo sapiens, UniProt Q08499); experiment: 5FOA growth assay in fission yeast strain expressing PDE4D3; type: cell-based; conditions: for EC50: OD600 0.6, read-out: ED50 for 5FOA growth assays, PDE4D3
# T2 construct: targets used in the assays are full-length proteins (as opposed to simply the catalytic domain); expressed in transfected cells; host or cells: Schizosaccharomyces pombe, PDE gene integrated in place of cgs2
# Experimental: Cells were pregrown in EMM medium [MP Biomedicals (Solon, Ohio), 3% glucose, filter-sterilized to avoid carmelization, which would introduce variability into the optical density of the medium] containing from 0 mM to 2.5 mM cAMP (or either 0.5 mM or 1.0 mM cGMP). This was to repress expression of the fbp1-ura4 reporter prior to exposure of cells to 5FOA medium. Cells were grown at 30° C. to exponential phase (approximately 10^7 cells/ml). […] Starting cell concentrations ranged from 0.5×10^5 to 4×10^5 cells/ml depending on the screening strain. […] Other positive control dishes contained 5 mM cAMP in the 5FOA medium for PDEs that lack appropriate control compounds. Cultures were grown for 48 hours at 30° C., sealed in an airtight container with moist paper towels to prevent evaporation. Optical densities (OD600) of cultures were measured using a microplate reader. Bioinformatic analysis of the results to determine composite Z scores was performed as previously described (1, 3).
# PDE7A = PDE7A (Homo sapiens, UniProt Q13946); experiment: 5FOA growth assay in fission yeast strain expressing PDE7A; type: cell-based; design: targets used in the assays are full-length proteins (as opposed to simply the catalytic domain); expressed in transfected cells; host or cells: Schizosaccharomyces pombe, PDE gene integrated in place of cgs2; conditions: for EC50: OD600 0.6, read-out: ED50 for 5FOA growth assays, PDE7A; for Composite Z score, PDE7A: high throughput 5FOA growth screen
# Method in brief: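 Growth stimulation, reported as composite Z scores, was read as OD600 after 48 h at 30 °C in 5FOA medium. Before this, reporter (fbp1-ura4) yeast were grown at 30 °C in EMM with 0–2.5 mM cAMP or 0.5/1.0 mM cGMP to repress the reporter, then exposed to 100 nl pinned compound (stocks generally 10 mM).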
# T2 sequence (Q08499 1-673 isoform Q08499-2): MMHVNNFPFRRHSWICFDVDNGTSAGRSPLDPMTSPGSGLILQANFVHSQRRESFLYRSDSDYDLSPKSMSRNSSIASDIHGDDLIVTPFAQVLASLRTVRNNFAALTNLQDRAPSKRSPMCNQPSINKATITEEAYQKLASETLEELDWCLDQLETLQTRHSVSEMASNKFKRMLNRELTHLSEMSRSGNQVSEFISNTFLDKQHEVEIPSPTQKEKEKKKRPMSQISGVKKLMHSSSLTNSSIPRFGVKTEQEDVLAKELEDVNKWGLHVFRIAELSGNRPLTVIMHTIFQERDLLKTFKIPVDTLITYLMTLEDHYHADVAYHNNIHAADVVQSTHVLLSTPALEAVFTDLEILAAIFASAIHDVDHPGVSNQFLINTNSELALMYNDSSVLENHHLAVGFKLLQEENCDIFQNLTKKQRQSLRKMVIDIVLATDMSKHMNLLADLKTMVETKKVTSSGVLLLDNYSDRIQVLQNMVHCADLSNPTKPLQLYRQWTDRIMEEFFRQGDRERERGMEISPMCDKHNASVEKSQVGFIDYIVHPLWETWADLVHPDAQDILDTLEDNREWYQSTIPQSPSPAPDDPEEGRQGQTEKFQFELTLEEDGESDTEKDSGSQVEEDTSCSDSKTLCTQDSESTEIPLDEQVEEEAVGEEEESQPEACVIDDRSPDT
# Chain of PDE7A (Q13946 whole entry, the tested form may be a part): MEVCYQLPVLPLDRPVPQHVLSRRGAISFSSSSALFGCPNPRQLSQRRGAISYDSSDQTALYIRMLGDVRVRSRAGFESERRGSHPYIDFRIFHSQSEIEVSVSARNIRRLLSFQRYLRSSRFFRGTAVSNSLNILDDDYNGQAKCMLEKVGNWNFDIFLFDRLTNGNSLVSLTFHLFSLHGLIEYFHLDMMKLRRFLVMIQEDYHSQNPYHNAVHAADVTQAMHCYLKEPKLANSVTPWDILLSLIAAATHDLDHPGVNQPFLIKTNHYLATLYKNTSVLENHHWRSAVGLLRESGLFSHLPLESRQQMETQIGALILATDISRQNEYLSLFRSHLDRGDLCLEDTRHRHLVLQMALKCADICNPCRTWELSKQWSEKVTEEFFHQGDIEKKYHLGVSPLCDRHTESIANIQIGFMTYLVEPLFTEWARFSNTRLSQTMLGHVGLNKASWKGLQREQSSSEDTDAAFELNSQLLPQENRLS
smiles,measurement,setting,value
CCC1CCc2c(sc3ncnc(N4CCOCC4)c23)C1 (stereo not drawn) [BC33],"Composite Z score, PDE4A5",PDE4A5,36.026
same,"PDE inhibitor profile, in words",[1],PDE4 inhibitor. It also shows some activity on PDE4D3 (but not 4D2)
same,EC50,PDE4D3,33 µM
same,EC50,PDE7A,> 200 µM
same,"Composite Z score, PDE7A",PDE7A,−0.794
CCN(CC)c1ncnc2sc3c(c12)CCCC3 [BC44],"Composite Z score, PDE4A5",PDE4A5,63.222
same,"PDE inhibitor profile, in words",[1],"very good PDE4 and PDE7 inhibitor, with low PDE4D inhibition"
same,EC50,PDE4D3,3.3 µM
same,"Composite Z score, PDE7A",PDE7A,177.31
Cc1sc2ncnc(Nc3ccccc3)c2c1C [BC64],"PDE inhibitor profile, in words",[1],moderate PDE7 inhibitor
same,EC50,PDE4D3,> 200 µM
same,EC50,PDE7A,> 200 µM
same,"Composite Z score, PDE7A",PDE7A,55.035
COC(=O)C1=C(C)N(C2CCCCC2)C(=O)/C1=C\c1cccs1 [Compound 22],"2 Assay (2 uM), 4A5",PDE4A5,13.66
same,1 Assay (20 uM) 4A5,PDE4A5,−0.06
same,"inhibitor class, Table 15",[1],22 (4)
same,"2 Assay (2 uM), 4D3",PDE4D3,42.32
same,"2 Assay (2 uM), 7A",PDE7A,57.22
same,1 Assay (20 uM) 7A,PDE7A,132.82
COC(=O)C1=C(C)N(c2ccccc2Cl)C(=O)/C1=C\c1cccs1 [Compound 27],"2 Assay (2 uM), 4A5",PDE4A5,12.63
same,1 Assay (20 uM) 4A5,PDE4A5,65.67
same,"inhibitor class, Table 15",[1],27 (3)
same,"2 Assay (2 uM), 4D3",PDE4D3,0.00
same,"2 Assay (2 uM), 7A",PDE7A,5.07
same,1 Assay (20 uM) 7A,PDE7A,2.34
COc1ccc2c(c1)[C@@]1(C)CCC[C@](C)(CO)C1CC2 (stereo partly drawn) [Compound 2067M03],"2 Assay (2 uM), 4A5",PDE4A5; PDE 4A5,8.43
same,1 Assay (20 uM) 4A5,PDE4A5; PDE 4A5,16.94
same,"2 Assay (2 uM), 4D3",PDE4D3; PDE 4D3,ND 1.24 ND ND ND
same,"2 Assay (2 uM), 7A",PDE7A; PDE 7A,8.65
same,1 Assay (20 uM) 7A,PDE7A; PDE 7A,104.31
Cc1ccc2c(c1)CCC1CC(=O)CC[C@]21C (stereo partly drawn) [Compound 2158J12],"2 Assay (2 uM), 4A5",PDE4A5; PDE 4A5,7.00
same,1 Assay (20 uM) 4A5,PDE4A5; PDE 4A5,113.27
same,"2 Assay (2 uM), 4D3",PDE4D3; PDE 4D3,40.17
same,1 Assay (20 uM) 4D3,"PDE4D3; 20 uM, PDE 4D3",14.84
same,"2 Assay (2 uM), 7A",PDE7A; PDE 7A,29.01
same,1 Assay (20 uM) 7A,PDE7A; PDE 7A,74.45

# Source: patent US20100227853A1, “INHIBITORS OF CYCLIC AMP PHOSPHODIESTERASES” (Trustees of Boston College, priority 2008, published 2010)
